According to patent US11447467B2, “Compounds for the degradation of STK4 and treatment of hematologic malignancies” (DANA-FARBER CANCER INSTITUTE, INC., priority 2017, dated 2022):
Blank lines part the entries; values can stand above or below the compound they belong to.

Columns and labels:
[1] = system: CRBN-knockout MM.1S cells; test: MTT cell growth assay, CRBN-knockout MM.1S cells; type: cell-based, human; settings: for cytotoxicity in CRBN-knockout cells (FIG. 11): 0.2-20 μM, 72 h; for cytotoxicity in CRBN-knockout cells (FIG. 5): parental or CRBN-knockout MM.1S cells, 24 h, 0.1-10 μM, MTT
Protocol: (§1) Dexamethasone-sensitive MM.1S human MM cell line were kindly provided by Dr. Steven Rosen (Northwestern University, Chicago, Ill., United States). Creblon stable knockout MM.1S cells were established in our laboratory using lentiviral CRBN shRNA system. The cell lines were routinely tested for Mycoplasma, and genotyped with two different methods. Peripheral blood mononuclear cells were obtained from healthy volunteer by Ficoll-Paque centriguation. All MM cell lines and PBMCs were cultured in RPMI-1640 media (EuroClone, Pero, Italy) containing 10% fetal bovine serum (FBS, GIBCO, Life technologies, Carlsbad, Calif., United States), and a mix of penicillin and streptomycin to 1% from EuroClone (ECB3001).
(§2) MM.1S and CRBN-knockout MM.1S cells were counted and diluted to a final concentration of 400,000 cells/mL. The cell were plated in 96-well plates and mixed with an equal volume of culture media containing DMSO or increasing concentration of a compound of the present application diluted in DMSO (the final DMSO concentration is equal between all tested samples), using a STARlet Robot (Hamiltonrobotics, Reno, Nev., United States). Cells with increasing concentration of compound of the present application and DMSO were harvested at different time points (24 hrs to 72 hrs). For assessment of celll growth MTT assay, the 3-[4,5 dimethylthiazol-2-yl]-2,5 diphenyltetrazolium bromide-MTT (Sigma-Aldrich, St. Louis, Mo., Unites States) colorimetric assay was used. At the various time points (24-72 hrs), 10 μL of 5 mg/mL MTT were added to cells. After 4 hrs incubation at 37° C., medium was discarded and 100 μL MTT stop solution (Isopropanol with 1 N HCl) was used to dissolve MTT metabolic products. Absorbance was read at 570/630 nm.

[2] = system: MM.1S cells resistant to lenalidomide (Len-R #1); test: MTT cell growth assay, lenalidomide-resistant MM.1S cells; type: cell-based, human; settings: Len-R #1 MM.1S cells, 0.2-20 μM, 72 h
[3] = system: MM.1S cells; test: MTT cell growth assay, MM.1S cells; type: cell-based, human; settings: 72 h; for MM cell growth inhibition (FIG. 10): 0.2-20 μM; for potency in inhibiting MM cell growth as compared to lenalidomide (FIG. 15): comparator lenalidomide (Len)
Protocol: as §1, §2

[4] = system: Peripheral blood mononuclear cells (PBMCs) from healthy volunteer; test: MTT cell growth assay, peripheral blood mononuclear cells; type: cell-based, human; settings: PBMCs from healthy volunteer vs MM.1S cells, 48 h
Protocol: as §1
MM.1S and CRBN-knockout MM.1S cells were counted and diluted to a final concentration of 400,000 cells/mL. The cell were plated in 96-well plates and mixed with an equal volume of culture media containing DMSO or increasing concentration of a compound of the present application diluted in DMSO (the final DMSO concentration is equal between all tested samples), using a STARlet Robot (Hamiltonrobotics, Reno, Nev., United States). Cells with increasing concentration of compound of the present application and DMSO were harvested at different time points (24 hrs to 72 hrs). […] Absorbance was read at 570/630 nm.

[5] = molecular target: T1, STK4 (Homo sapiens, UniProt Q13043); test: Western blotting of STK4 in whole cell lysates of MM.1S cells (parental or CRBN-knockout); type: cell-based; settings: for degradation of STK4 in cereblon-knockout cells (FIG. 8): CRBN-K.O. vs parental MM.1S cells; for downregulation of STK4 in MM.1S cells (FIG. 7): 0.6-20 μM; for degradation of STK4 in the presence of MLN4924 (FIG. 9): compound 10 μM, NEDD8 inhibitor MLN4924 1 μM; for downregulation of STK4 in MM.1S cells (FIG. 1): immunoblotting anti-STK4/anti-GAPDH; for downregulation of STK4 over time (FIG. 3B): 10 μM
T1 construct: endogenous in cells; host or cells: MM.1S and CRBN-knockout MM.1S cells
T1 sequence (Q13043 1-487): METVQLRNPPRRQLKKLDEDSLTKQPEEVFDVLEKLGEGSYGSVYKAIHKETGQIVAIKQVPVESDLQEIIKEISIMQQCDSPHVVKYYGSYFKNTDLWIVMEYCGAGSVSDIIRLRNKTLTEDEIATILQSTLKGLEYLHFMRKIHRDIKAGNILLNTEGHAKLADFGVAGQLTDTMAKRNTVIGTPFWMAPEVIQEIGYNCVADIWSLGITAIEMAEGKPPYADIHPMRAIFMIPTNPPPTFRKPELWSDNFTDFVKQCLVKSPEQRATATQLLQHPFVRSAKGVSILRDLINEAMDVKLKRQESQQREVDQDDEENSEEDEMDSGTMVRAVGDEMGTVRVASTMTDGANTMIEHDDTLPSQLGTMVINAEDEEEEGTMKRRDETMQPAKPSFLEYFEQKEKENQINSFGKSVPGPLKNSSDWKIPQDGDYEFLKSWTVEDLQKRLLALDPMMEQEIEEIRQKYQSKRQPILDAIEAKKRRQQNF
Text: MM.1S, KMS20 and H929 cells are counted, diluted and plated. Cells are then […] with DMSO or different concentration of a compound of the present application for 6 hrs, 24 hrs or 48 hrs. MM cells are then collected and centrifuged at RT and the pellets are re-suspended in lysis buffer. Cell lysates are subjected to sodium dodecyl sulfate-polyacrylamide gel electrophoresis SDS-PAGE, transferred to nitrocellulose membranes, and immunoblotted with different antibodies.
MM.1S and CRBN knockout MM.1S cells were counted, diluted and plated in six-well plates to a final concentration of 500,000 cells/well. Cells were then harvested with DMSO or different concentration of a compound of the present application (4 h-24 h). MM cells were then collected and centrifuged for 5 min, 1300 rpm at RT. The pellets were re-suspended in cell lysis buffer (20 mM Tris-HCl (pH 7.5), 150 mM NaCl, 1 mM Na2EDTA, 1 mM EGTA, 1% Triton, 2.5 mM sodium pyrophosphate, 1 mM beta-glycerophosphate, 1 mM Na3VO4, 1 μg/ml leupeptin. Cell lysates were subjected to sodium dodecyl sulfate-polyacrylamide gel electrophoresis SDS-PAGE, transferred to nitrocellulose membranes, and immunoblotted with different antibodies: MST1 (STK4) (#14946), K48-linkage Specific Polyubiquitin (#8081) and GAPDH (#5174) from Cell Signaling, Beverly, Mass., United States: IKZF1 (AF4984) (from R&D Systems, Mineapolis, Minn., United States). All antibodies were diluted 1:1000, except for GAPDH antibody (1:4,000 dilution).

[6] = MM.1S cells, 24 h, indicated concentrations

Compound: Nc1ncc(-c2ccc(S(=O)(=O)NC3CCCN(C(=O)CCOCCOCCOCCOCCOCCNc4cccc5c4C(=O)N(C4CCC(=O)NC4=O)C5=O)C3)cc2F)cc1-c1ccc2c(c1)CCNC2=O (centres unmarked) [Compound I-20, 4-(6-amino-5-(1-oxo-1,2,3,4-tetrahydroisoquinolin-1-yl)pyridin-3-yl)-N-(1-(1-((2-(2,6-dioxopiperidin-3-yl)-1,3-dioxoisoindolin-4-yl)amino)-3,6,9,12,15-pentaoxaoctadecan-18-oyl)piperidin-3-yl)-3-fluorobenzenesulfonamide]
downregulation of STK4 in MM.1S cells (FIG. 1) [5, 6]: dose dependent downregulation of STK4

Compound: Nc1ncc(-c2ccc(S(=O)(=O)N(CCCNC(=O)CCOCCOCCOCCOCCOCCNc3cccc4c3C(=O)N(C3CCC(=O)NC3=O)C4=O)C3CC3)cc2F)cc1-c1ccc2c(c1)CCNC2=O (centres unmarked) [Compound I-19, N-(3-((4-(6-amino-5-(1-oxo-1,2,3,4-tetrahydroisoquinolin-6-yl)pyridin-3-yl)-N-cyclopropyl-3-fluorophenyl)sulfonamido)propyl)-1-((2-(2,6-dioxopiperidin-3-yl)-1,3-dioxoisoindolin-4-yl)amino)-3,6,9,12,15-pentaoxaoctadecan-18-amide]
cytotoxicity in CRBN-knockout cells (FIG. 5) [1]: decrease in cytotoxicity | downregulation of STK4 over time (FIG. 3A) ([5]; MM.1S cells, 2.5 μM, 4-24 h): downregulation of STK4 by compounds of the application in a time-dependent fashion | downregulation of STK4 in MM.1S cells (FIG. 2) ([5]; MM.1S cells, 24 h, 0.15-5 μM, Western blotting): dose dependent downregulation of STK4 | downregulation of STK4 in MM.1S cells (FIG. 1) [5, 6]: dose dependent downregulation of STK4 | degradation of STK4 in cereblon-knockout cells (FIG. 4) ([5]; cereblon (CRBN)-knockout vs parental MM.1S cells, 24 h, indicated concentrations): absence of degradation of STK4

Compound: Nc1ncc(-c2ccc(S(=O)(=O)Nc3cccc(NC(=O)CCOCCOCCOCCOCCOCCOc4cccc5c4C(=O)N(C4CCC(=O)NC4=O)C5=O)c3)cc2F)cc1-c1ccc2c(c1)CCNC2=O (centres unmarked) [Compound I-17]
downregulation of STK4 over time (FIG. 3B) ([5]; MM.1S cells, 4-24 h): downregulation of STK4 by compounds of the application in a time-dependent fashion

Now from value to compound, other results behind:

degradation of STK4 in cereblon-knockout cells (FIG. 8) ([5]; 24 h): absence of degradation of STK4 | downregulation of STK4 in MM.1S cells (FIG. 7) ([5]; MM.1S cells, 24 h): dose dependent downregulation of STK4 | degradation of STK4 in the presence of MLN4924 (FIG. 9) ([5]; MM.1S cells, 24 h): absence of degradation of STK4
Compound: Nc1ncc(-c2ccc(S(=O)(=O)Nc3ccc(NC(=O)CCOCCOCCOCCOCCOCCNc4cccc5c4C(=O)N(C4CCC(=O)NC4=O)C5=O)cc3)cc2F)cc1-c1ccc2c(c1)CCNC2=O (centres unmarked) [Compound I-7, N-(4-((4-(6-amino-5-(1-oxo-1,2,3,4-tetrahydroisoquinolin-6-yl)pyridin-3-yl)-3-fluorophenyl)sulfonamido)phenyl)-1-((2-(2,6-dioxopiperidin-3-yl)-1,3-dioxoisoindolin-4-yl)amino)-3,6,9,12,15-pentaoxaoctadecan-18-amide]
cytotoxicity in CRBN-knockout cells (FIG. 11) [1]: decrease in cytotoxicity | cytotoxicity in acquired lenalidomide-resistant cells (FIG. 12B) [2]: decrease in cytotoxicity | MM cell growth inhibition (FIG. 10) [3]: potent MM cell growth inhibition | potency in inhibiting MM cell growth as compared to lenalidomide (FIG. 15) [3]: greater potency | cytotoxicity to peripheral blood mononuclear cells (FIG. 13A/13B) [4]: absence of cytotoxic

degradation of STK4 in cereblon-knockout cells (FIG. 8) ([5]; 24 h): absence of degradation of STK4 | downregulation of STK4 in MM.1S cells (FIG. 7) ([5]; MM.1S cells, 24 h): dose dependent downregulation of STK4 | downregulation of STK4 in MM.1S cells (FIG. 1) [5, 6]: dose dependent downregulation of STK4 | degradation of STK4 in the presence of MLN4924 (FIG. 9) ([5]; MM.1S cells, 24 h): absence of degradation of STK4
Compound: Nc1ncc(-c2ccc(S(=O)(=O)Nc3cccc(NC(=O)CCOCCOCCOCCOCCOCCNc4cccc5c4C(=O)N(C4CCC(=O)NC4=O)C5=O)c3)cc2F)cc1-c1ccc2c(c1)CCNC2=O (centres unmarked) [Compound I-10]
cytotoxicity in CRBN-knockout cells (FIG. 11) [1]: decrease in cytotoxicity | cytotoxicity in CRBN-knockout cells (FIG. 5) [1]: decrease in cytotoxicity | cytotoxicity in acquired lenalidomide-resistant cells (FIG. 12B) [2]: decrease in cytotoxicity | MM cell growth inhibition (FIG. 10) [3]: potent MM cell growth inhibition | potency in inhibiting MM cell growth as compared to lenalidomide (FIG. 15) [3]: greater potency | cytotoxicity to peripheral blood mononuclear cells (FIG. 13A/13B) [4]: absence of cytotoxic | downregulation of STK4 over time (FIG. 3B) ([5]; MM.1S cells, 4-24 h): downregulation of STK4 by compounds of the application in a time-dependent fashion
